Source: patent US7148250B2, “Indoles as NAALADase inhibitors” (Guilford Pharmaceuticals Inc., priority 2001, dated 2006)

What was measured:
[1] = tested on: Brown Norway rats with unilateral elevation of intraocular pressure; assay: Experimental rat glaucoma (IOP elevation), optic nerve fiber counting; assay type: in vivo; details: 10 mg/kg i.p. daily
Method: All experiments complied with the Association for Research in Vision and Ophthalmology Statement for the Use of Animals in Ophthalmic and Vision Research. 82 male Brown Norway rats (Rattus norvegicus), each weighing approximately 250 gm, were treated using procedures approved by the Animal Care Committee of the Johns Hopkins University School of Medicine. The rats were housed with a 12 hour light/12 hour dark cycle and fed ad libitum.
EXPERIMENTAL GLAUCOMA: Unilateral elevation of intraocular pressure (“IOP”) was produced in 56 rats by microinjection of hypertonic saline into episcleral veins, following procedures described in Morrison, J. et al., IOVS (March 1998) 39:526–531. Beginning on the day of IOP elevation, the rats were treated daily with intraperitoneal injections of either a vehicle (23 rats with 50 mM HEPES-buffered saline) or a NAALADase inhibitor (11 rats with 10 mg/kg of Compound A and 22 rats with 10 mg/kg of Compound B). 11 saline treated rats, 11 Compound A treated rats and 11 Compound B treated rats were sacrificed at 8 weeks, and the remaining rats at 12 weeks, after initial IOP elevation.
OPTIC NERVE COUNTING: The rats were sacrificed by exsanguination under deep pentobarbital anesthesia. They were perfused through the heart with 2% paraformaldehyde/2% glutaraldehyde in 0.1 M phosphate buffer, pH 7.2, and the eyes with attached optic nerves were removed. A cross-section of the optic nerve from both experimental (glaucoma or transection) and control eyes was removed 1.5 mm posterior to the globe, 1 mm in thickness, and post-fixed in 2% osmium tetroxide in buffer. These were processed into epoxy resin, sectioned at 1 micron and stained with toluidine blue.
The area of the optic nerve cross-section was measured by outlining its outer border at 10× magnification on an image analysis system (Universal Imaging Corp., Westchester, Pa.) with Synsys digital camera and Metamorph software. Three area measurements were taken and the mean value was determined. To measure the density and fiber diameter distributions, images were captured with a 100× phase contrast objective from 10 different areas of each nerve. These were edited to eliminate non-neural objects and the size of each axon internal to the myelin sheath (its minimum diameter) and the density of axons/square mm were calculated for each image and nerve. The mean density was multiplied by total nerve area to yield fiber number for each nerve. The total fiber number in glaucoma or transection nerves was compared to the normal, fellow eye of each rat to yield a percent loss value. The number of axons counted among the 10 images was an approximately 20% sample of the 80–90,000 axons in normal rat nerves. The person measuring axon number was masked to the protocol conducted on the nerves.

[2] = tested on: transgenic HD mice of the N171-82Q strain; assay: Transgenic mouse model of Huntington's disease (rotarod, locomotion, survival); assay type: in vivo
Method: Transgenic HD mice of the N171-82Q strain and non-transgenic littermates were treated with NAALADase inhibitor Compound B (30 mg/kg) or a vehicle from 10 weeks of age. The mice were placed on a rotating rod (“rotarod”). The length of time at which the mouse fell off the rotarod was recorded as a measure of motor coordination. […] The treatment with Compound B had no effect on the rotarod performance of normal non-HD mice.
The total distance traveled by the mice was also recorded as a measure of overall locomotion.
The effects of Compound B and vehicle on the survival of transgenic HD mice (N171-82Q) were evaluated. Thirteen mice (six male and seven female) were assigned to the Compound B treatment group, and fourteen mice (six male and eight female) were assigned to the vehicle treatment group. Treatment was continued until all the mice died.

O=C(O)CCC(CCCS)C(=O)O (centres unmarked) [Compound B, 2-(3-sulfanylpropyl)-pentanedioic acid]
FIBER NUMBER ± SEM ([1]; 8 week group): 80785 ± 2121 | PERCENT DIFFERENCE ± SEM in fiber number between glaucoma and normal eye ([1]; 8 week group, positive = fewer fibers in glaucoma eye): −0.82 ± 2.97% | FIBER NUMBER ([1]; 12 week group): 90504 ± 1718 | PERCENT DIFFERENCE in fiber number between glaucoma and normal eye ([1]; 12 week group, positive = fewer fibers in glaucoma eye): −3.21 ± 2.86% | survival time versus vehicle treated counterparts ([2]; female transgenic HD mice (p-value=0.03)): significantly prolonged survival time | rotarod performance ([2]; normal non-HD mice, 30 mg/kg): no effect | median survival time ([2]; transgenic HD mice (N171-82Q), both sexes, not significant versus vehicle (p=0.07)): 184 days | rotarod performance (time on rotarod) versus vehicle ([2]; transgenic HD mice, 30 mg/kg from 10 weeks of age): stayed longer on the rotarod
